Assay results from ChEMBL document CHEMBL1201862, “PubChem BioAssay data set” (2004).
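Compound exposure: 48 hours, 5 concentrations, 96-well plates. Abbreviation: GI50, concentration required for 50% inhibition of growth.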 The source made the active and inactive calls. Cut-off read from the data, not from the text of the source: active = GI50 up to about 1.1 µM and inactive = higher.

Columns and labels:
Assay in all cases: NCI anticancer screen, dose series, 48 h
[1] = system: CAKI-1
[2] = system: COLO 205
[3] = system: EKVX
[4] = system: HCC 2998
[5] = system: HL-60
[6] = system: HOP-92
[7] = system: HT-29
[8] = system: MCF7
[9] = system: MDA-MB-231
[10] = system: Malme-3M
[11] = system: NCI-H23
[12] = system: OVCAR-4
[13] = system: OVCAR-8
[14] = system: RPMI-8226
[15] = system: SF-539
[16] = system: SK-MEL-28
[17] = system: SK-MEL-5
[18] = system: SNB-19
[19] = system: TK-10
[20] = system: UACC-62

Compound | GI50 [1] | GI50 [2] | GI50 [3] | GI50 [4] | GI50 [5] | GI50 [6] | GI50 [7] | GI50 [8] | GI50 [9] | GI50 [10] | GI50 [11] | GI50 [12] | GI50 [13] | GI50 [14] | GI50 [15] | GI50 [16] | GI50 [17] | GI50 [18] | GI50 [19] | GI50 [20]
COC(=O)[C@]1(c2cc3ccccc3[nH]2)CC2CN(CC(=O)N(C)OC)C1C1OC(C)(C)OC21 (stereo not given in full) | 54.2 µM (inactive) | 31.7 µM (inactive) | 63.5 µM (inactive) | 38 µM (inactive) | 27.2 µM (inactive) | 47.8 µM (inactive) | 61.9 µM (inactive) | 36.1 µM (inactive) | 31.6 µM (inactive) | > 100 µM (inactive) | 45.8 µM (inactive) | 36.9 µM (inactive) | 75.3 µM (inactive) | 23.2 µM (inactive) | > 100 µM (inactive) | > 100 µM (inactive) | 31 µM (inactive) | 92.9 µM (inactive) | 56.6 µM (inactive) | 61.7 µM (inactive)
CCC(=O)/C=C/c1ccccc1 | 56.1 µM (inactive) | > 100 µM (inactive) | > 100 µM (inactive) | 63.1 µM (inactive) | 33.4 µM (inactive) | > 100 µM (inactive) | 43.7 µM (inactive) | 31.7 µM (inactive) | > 100 µM (inactive) | > 100 µM (inactive) | 47.4 µM (inactive) | 95.9 µM (inactive) | 51.3 µM (inactive) | 54.3 µM (inactive) | 53 µM (inactive) | 54 µM (inactive) | 33 µM (inactive) | 44 µM (inactive) | > 100 µM (inactive) | 37 µM (inactive)
CC(=O)NC1=CC(=O)C=C(Cl)C1=O | > 100 µM (inactive) | 39.3 µM (inactive) | > 100 µM (inactive) | > 100 µM (inactive) | 20.9 µM (inactive) | > 100 µM (inactive) | > 100 µM (inactive) | 28.7 µM (inactive) | > 100 µM (inactive) | 25.7 µM (inactive) | 43.9 µM (inactive) | 18.1 µM (inactive) | > 100 µM (inactive) | 22.6 µM (inactive) | > 100 µM (inactive) | > 100 µM (inactive) | > 100 µM (inactive) | > 100 µM (inactive) | > 100 µM (inactive) | 37.5 µM (inactive)
O=S(=O)(Nc1nc2ccccc2nc1Nc1ccc2ccccc2c1)c1ccccc1 | 27.4 µM (inactive) | 12.4 µM (inactive) | 11.7 µM (inactive) | 7.1 µM (inactive) | 5.77 µM (inactive) | 5.06 µM (inactive) | 11 µM (inactive) | 10.9 µM (inactive) | 26.4 µM (inactive) | 4.53 µM (inactive) | 6.89 µM (inactive) | 4.67 µM (inactive) | 14.4 µM (inactive) | 2.44 µM (inactive) | 15.3 µM (inactive) | 12.1 µM (inactive) | 10.9 µM (inactive) | 9.42 µM (inactive) | 27.1 µM (inactive) | 4.67 µM (inactive)
CCOC(=O)c1nc2cc(N3CCOCC3)c(F)cc2[nH]c1=O | > 100 µM (inactive) | > 100 µM (inactive) | 4.67 µM (inactive) | > 100 µM (inactive) | 19.8 µM (inactive) | 37.9 µM (inactive) | 69.8 µM (inactive) | > 100 µM (inactive) | > 100 µM (inactive) | > 100 µM (inactive) | > 100 µM (inactive) | > 100 µM (inactive) | 86.9 µM (inactive) | > 100 µM (inactive) | > 100 µM (inactive) | > 100 µM (inactive) | > 100 µM (inactive) | > 100 µM (inactive) | > 100 µM (inactive) | 92.9 µM (inactive)
CCCCCCCC/C=C1\CCC(CN2CCOCC2)C1=O (stereo not given) | 8.87 µM (inactive) | 5.77 µM (inactive) | 17.7 µM (inactive) | 11.5 µM (inactive) | 3.11 µM (inactive) | 16.6 µM (inactive) | 6.98 µM (inactive) | 1.94 µM (inactive) | 2.23 µM (inactive) | 10.5 µM (inactive) | 10.2 µM (inactive) | 13.3 µM (inactive) | 3.83 µM (inactive) | 0.551 µM (active) | 7.74 µM (inactive) | 9.35 µM (inactive) | 10.1 µM (inactive) | 11.2 µM (inactive) | 2.77 µM (inactive) | 5.35 µM (inactive)
Nn1c(Sc2nc3ccccc3c(=O)n2N)nc2ccccc2c1=O | 6.37 µM (inactive) | 13.8 µM (inactive) | 17.5 µM (inactive) | 15.2 µM (inactive) | 2.51 µM (inactive) | 6.92 µM (inactive) | 3.4 µM (inactive) | 4.1 µM (inactive) | 7.93 µM (inactive) | 3.57 µM (inactive) | 1.91 µM (inactive) | 26.7 µM (inactive) | 2.77 µM (inactive) | 3.5 µM (inactive) | 2.48 µM (inactive) | 4.84 µM (inactive) | 3.96 µM (inactive) | 6.92 µM (inactive) | 21.2 µM (inactive) | 11.5 µM (inactive)
